Source: patent US6573218B1, “Fused-benzene derivatives useful as herbicides” (Ishihara Sangyo Kaisha, Ltd., priority 1998, dated 2003)

What was measured:
Type in all cases: in vivo
[1] = test system: barnyardgrass (Echinochloa crus-galli, ECHCG); experiment: Pre-emerge greenhouse herbicide test; details: 250 g ai/ha, 14 days after application, scale 0-100 (0 no damage, 100 complete death)
Procedure, shortened: (§1)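 Greenhouse pot test; acetone vehicle, 187 l/ha, 15–1000 g ai/ha. Post: 2–3 leaf, +0.25% v/v non-ionic surfactant. Pre: sown d-1, surface-watered after spray. Read-out 0–100 injury, 14 DAT.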

[2] = test system: green foxtail (Setaria viridis, SETVI); experiment: Pre-emerge greenhouse herbicide test; details: 250 g ai/ha, 14 days after application, scale 0-100 (0 no damage, 100 complete death)
Procedure, shortened: as §1

[3] = test system: ivyleaf morningglory (Ipomoea hederacea, IPOHE); experiment: Pre-emerge greenhouse herbicide test; details: 250 g ai/ha, 14 days after application, scale 0-100 (0 no damage, 100 complete death)
Procedure, shortened: as §1

[4] = test system: johnsongrass (Sorghum halepense, SORHA); experiment: Pre-emerge greenhouse herbicide test; details: 250 g ai/ha, 14 days after application, scale 0-100 (0 no damage, 100 complete death)
Procedure, shortened: as §1

[5] = test system: lambsquarters (Chenopodium album, CHEAL); experiment: Pre-emerge greenhouse herbicide test; details: 250 g ai/ha, 14 days after application, scale 0-100 (0 no damage, 100 complete death)
Procedure, shortened: as §1

[6] = test system: large crabgrass (Digitaria sanguinalis, DIGSA); experiment: Pre-emerge greenhouse herbicide test; details: 250 g ai/ha, 14 days after application, scale 0-100 (0 no damage, 100 complete death)
Procedure, shortened: as §1

[7] = test system: redroot pigweed (Amaranthus retroflexus, AMARE); experiment: Pre-emerge greenhouse herbicide test; details: 250 g ai/ha, 14 days after application, scale 0-100 (0 no damage, 100 complete death)
Procedure, shortened: as §1

[8] = test system: sicklepod (Cassia obtusifolia, CASOB); experiment: Pre-emerge greenhouse herbicide test; details: 250 g ai/ha, 14 days after application, scale 0-100 (0 no damage, 100 complete death)
Procedure, shortened: as §1

[9] = test system: velvetleaf (Abutilon theophrasti, ABUTH); experiment: Pre-emerge greenhouse herbicide test; details: 250 g ai/ha, 14 days after application, scale 0-100 (0 no damage, 100 complete death)
Procedure, shortened: as §1

[10] = test system: field corn (Zea mays L., var. Dekalb 527, CORN); experiment: Pre-emerge greenhouse crop damage test; details: pre-emerge, 250 g ai/ha, 14 days after application, scale 0-100 (0 no damage, 100 complete death)
Procedure, shortened: as §1

[11] = test system: soybean (Glycine max L., var. Pella 86, SOY); experiment: Pre-emerge greenhouse crop damage test; details: pre-emerge, 250 g ai/ha, 14 days after application, scale 0-100 (0 no damage, 100 complete death)
Procedure, shortened: as §1

[12] = test system: upland rice (Ory0a sp., var.Tebonnet, RICE); experiment: Pre-emerge greenhouse crop damage test; details: in vivo
Procedure, shortened: as §1

[13] = test system: barnyardgrass (Echinochloa crus-galli, ECHCG); experiment: Post-emerge greenhouse herbicide test; details: 250 g ai/ha, 14 days after application
Procedure, shortened: as §1

[14] = test system: common ragweed (Ambrosia artemisiifolia L., AMBEL); experiment: Post-emerge greenhouse herbicide test; details: 250 g ai/ha, 14 days after application
Procedure, shortened: as §1

[15] = test system: green foxtail (Setaria viridis, SETVI); experiment: Post-emerge greenhouse herbicide test; details: 250 g ai/ha, 14 days after application
Procedure, shortened: as §1

[16] = test system: ivyleaf morningglory (Ipomoea hederacea, IPOHE); experiment: Post-emerge greenhouse herbicide test; details: 250 g ai/ha, 14 days after application
Procedure, shortened: as §1

[17] = test system: johnsongrass (Sorghum halepense, SORHA); experiment: Post-emerge greenhouse herbicide test; details: 250 g ai/ha, 14 days after application
Procedure, shortened: as §1

[18] = test system: lambsquarters (Chenopodium album, CHEAL); experiment: Post-emerge greenhouse herbicide test; details: 250 g ai/ha, 14 days after application
Procedure, shortened: as §1

[19] = test system: large crabgrass (Digitaria sanguinalis, DIGSA); experiment: Post-emerge greenhouse herbicide test; details: 250 g ai/ha, 14 days after application
Procedure, shortened: as §1

[20] = test system: redroot pigweed (Amaranthus retroflexus, AMARE); experiment: Post-emerge greenhouse herbicide test; details: 250 g ai/ha, 14 days after application
Procedure, shortened: as §1

[21] = test system: sicklepod (Cassia obtusifolia, CASOB); experiment: Post-emerge greenhouse herbicide test; details: 250 g ai/ha, 14 days after application
Procedure, shortened: as §1

[22] = test system: velvetleaf (Abutilon theophrasti, ABUTH); experiment: Post-emerge greenhouse herbicide test; details: 250 g ai/ha, 14 days after application
Procedure, shortened: as §1

[23] = test system: field corn (Zea mays L., var. Dekalb 527, CORN); experiment: Post-emerge greenhouse crop damage test; details: 250 g ai/ha, post-emerge, 14 days after application
Procedure, shortened: as §1

[24] = test system: soybean (Glycine max L., var. Pella 86, SOY); experiment: Post-emerge greenhouse crop damage test; details: 250 g ai/ha, post-emerge, 14 days after application
Procedure, shortened: as §1

[25] = test system: upland rice (Ory0a sp., var.Tebonnet, RICE); experiment: Post-emerge greenhouse crop damage test; details: 250 g ai/ha, post-emerge, 14 days after application
Procedure, shortened: as §1

CC1Oc2c(Cl)cc(F)c(-c3nn(C)c(OC(F)F)c3Cl)c2NC1=O (centres unmarked) [Compound 10-8, 4-Chloro-3-(8-chloro-6-fluoro-2-methyl-2H-1,4-benzoxazine-3-one-5-yl)-5-difluoromethoxy-1-methyl-i H-pyrazole]
Pre-emerge Herbicidal Activity ECHCG (phytotoxicity rating) [1]: 100
Pre-emerge Herbicidal Activity SETVI (phytotoxicity rating) [2]: 100
Pre-emerge Herbicidal Activity IPOHE (phytotoxicity rating) [3]: 99
Pre-emerge Herbicidal Activity SORHA (phytotoxicity rating) [4]: 99
Pre-emerge Herbicidal Activity CHEAL (phytotoxicity rating) [5]: 100
Pre-emerge Herbicidal Activity DIGSA (phytotoxicity rating) [6]: 100
Pre-emerge Herbicidal Activity AMARE (phytotoxicity rating) [7]: 100
Pre-emerge Herbicidal Activity CASOB (phytotoxicity rating) [8]: 95
Pre-emerge Herbicidal Activity ABUTH (phytotoxicity rating) [9]: 100
Pre-emerge Herbicidal Activity CORN (crop damage rating) [10]: 0
Pre-emerge Herbicidal Activity SOY (crop damage rating) [11]: 15
Pre-emerge Herbicidal Activity RICE (crop damage rating) [12]: 40
Post-emerge Herbicidal Activity ECHCG (phytotoxicity rating 0-100) [13]: 100
Post-emerge Herbicidal Activity AMBEL (phytotoxicity rating 0-100) [14]: 95
Post-emerge Herbicidal Activity SETVI (phytotoxicity rating 0-100) [15]: 100
Post-emerge Herbicidal Activity IPOHE (phytotoxicity rating 0-100) [16]: 100
Post-emerge Herbicidal Activity SORHA (phytotoxicity rating 0-100) [17]: 55
Post-emerge Herbicidal Activity CHEAL (phytotoxicity rating 0-100) [18]: 100
Post-emerge Herbicidal Activity DIGSA (phytotoxicity rating 0-100) [19]: 65
Post-emerge Herbicidal Activity AMARE (phytotoxicity rating 0-100) [20]: 100
Post-emerge Herbicidal Activity CASOB (phytotoxicity rating 0-100) [21]: 100
Post-emerge Herbicidal Activity ABUTH (phytotoxicity rating 0-100) [22]: 100
Post-emerge crop damage CORN (phytotoxicity rating 0-100) [23]: 25
Post-emerge crop damage SOY (phytotoxicity rating 0-100) [24]: 100
Post-emerge crop damage RICE (phytotoxicity rating 0-100) [25]: 90

Cc1nc2c(-n3ncc(C(F)(F)F)cc3=O)c(F)cc(Cl)c2o1 [Compound 12-1]
Pre-emerge Herbicidal Activity ECHCG (phytotoxicity rating) [1]: 100
Pre-emerge Herbicidal Activity SETVI (phytotoxicity rating) [2]: 100
Pre-emerge Herbicidal Activity IPOHE (phytotoxicity rating) [3]: 99
Pre-emerge Herbicidal Activity SORHA (phytotoxicity rating) [4]: 100
Pre-emerge Herbicidal Activity CHEAL (phytotoxicity rating) [5]: 100
Pre-emerge Herbicidal Activity DIGSA (phytotoxicity rating) [6]: 100
Pre-emerge Herbicidal Activity AMARE (phytotoxicity rating) [7]: 100
Pre-emerge Herbicidal Activity CASOB (phytotoxicity rating) [8]: 90
Pre-emerge Herbicidal Activity ABUTH (phytotoxicity rating) [9]: 100
Pre-emerge Herbicidal Activity CORN (crop damage rating) [10]: 100
Pre-emerge Herbicidal Activity SOY (crop damage rating) [11]: 70
Pre-emerge Herbicidal Activity RICE (crop damage rating) [12]: 90
Post-emerge Herbicidal Activity ECHCG (phytotoxicity rating 0-100) [13]: 50
Post-emerge Herbicidal Activity AMBEL (phytotoxicity rating 0-100) [14]: 20
Post-emerge Herbicidal Activity SETVI (phytotoxicity rating 0-100) [15]: 0
Post-emerge Herbicidal Activity IPOHE (phytotoxicity rating 0-100) [16]: 40
Post-emerge Herbicidal Activity SORHA (phytotoxicity rating 0-100) [17]: 0
Post-emerge Herbicidal Activity CHEAL (phytotoxicity rating 0-100) [18]: 0
Post-emerge Herbicidal Activity DIGSA (phytotoxicity rating 0-100) [19]: 0
Post-emerge Herbicidal Activity AMARE (phytotoxicity rating 0-100) [20]: 70
Post-emerge Herbicidal Activity CASOB (phytotoxicity rating 0-100) [21]: 10
Post-emerge Herbicidal Activity ABUTH (phytotoxicity rating 0-100) [22]: 95
Post-emerge crop damage CORN (phytotoxicity rating 0-100) [23]: 0
Post-emerge crop damage SOY (phytotoxicity rating 0-100) [24]: 50
Post-emerge crop damage RICE (phytotoxicity rating 0-100) [25]: 10
